Results from ChEMBL document CHEMBL5634160, “Synthesis, biological evaluation and action mechanism of 7H-[1,2,4] triazolo [3,4-b] [1,3,4] thiadiazine-phenylhydrazone derivatives as α-glucosidase inhibitors” (Eur J Med Chem, 2023).

Target: Alpha-glucosidase (Saccharomyces cerevisiae S288c, UniProt P53341+P38158+P07265)
Experiment: Inhibition of Saccharomyces cerevisiae alpha-glucosidase using nitrophenol-alpha-D-glucopyranoside (pNPG) as substrate incubated for 15 mins
Format: protein assay

| SMILES | IC50 |
| --- | --- |
| COc1cc(/C=N/Nc2nnc3n2N=C(c2ccccc2)CS3)cc(OC)c1OC | 91.47 µM |
| Clc1ccccc1/C=N/Nc1nnc2n1N=C(c1ccccc1)CS2 | 41.83 µM |
